Columns and labels:
Format in all cases: in vivo
[1] = system: giant foxtail (Setaria faberi); assay: Test A postemergence, giant foxtail; details: 0 to 100 scale (0 no effect, 100 complete control)
Text: (§1) Seeds of barnyardgrass (Echinochloa crus-galli), large crabgrass (Digitaria sanguinalis), giant foxtail (Setaria faberi), morningglory (Ipomoea spp.), pigweed (Amaranthus retroflexus), velvetleaf (Abutilon theophrasti), wheat (Triticum aestivum), and corn (Zea mays) were planted into a blend of loam soil and sand and treated preemergence with a directed soil spray using test chemicals formulated in a non-phytotoxic solvent mixture which included a surfactant. At the same time these species were also treated with postemergence applications of test compounds formulated in the same manner. Plants ranged in height from two to ten cm and were in the one- to two-leaf stage for the postemergence treatment. Treated plants and untreated controls were maintained in a greenhouse for approximately ten days, after which time all treated plants were compared to untreated controls and visually evaluated for injury. Plant response ratings, summarized in Table A, are based on a 0 to 100 scale where 0 is no effect and 100 is complete control. A dash (-) response means no test result.

corn (Zea mays) [2] = assay: Test A postemergence, corn; details: 0 to 100 scale (0 no effect, 100 complete control)
Text: as §1

[3] = system: large crabgrass (Digitaria sanguinalis); assay: Test A preemergence, large crabgrass; details: 0 to 100 scale (0 no effect, 100 complete control)
Text: as §1

[4] = system: morningglory (Ipomoea spp.); assay: Test A postemergence, morningglory; details: 0 to 100 scale (0 no effect, 100 complete control)
Text: as §1

[5] = system: pigweed (Amaranthus retroflexus); assay: Test A postemergence, pigweed; details: 0 to 100 scale (0 no effect, 100 complete control)
Text: as §1

[6] = system: giant foxtail (Setaria faberi); assay: Test A preemergence, giant foxtail; details: 0 to 100 scale (0 no effect, 100 complete control)
Text: as §1

[7] = system: wheat (Triticum aestivum); assay: Test A preemergence, wheat; details: 0 to 100 scale (0 no effect, 100 complete control)
Text: as §1

[8] = system: pigweed (Amaranthus retroflexus); assay: Test A preemergence, pigweed; details: 0 to 100 scale (0 no effect, 100 complete control)
Text: as §1

[9] = system: velvetleaf (Abutilon theophrasti); assay: Test A postemergence, velvetleaf; details: 0 to 100 scale (0 no effect, 100 complete control)
Text: as §1

[10] = system: barnyardgrass (Echinochloa crus-galli); assay: Test B flooded paddy test, barnyardgrass; details: Flood
Text: (§2) Plant species in the flooded paddy test consisted of rice (Oryza sativa), umbrella sedge (Cyperus difformis), ducksalad (Heteranthera limosa) and barnyardgrass (Echinochloa crus-galli) grown to the 2-leaf stage for testing. At time of treatment, test pots were flooded to 3 cm above the soil surface, treated by application of test compounds directly to the paddy water, and then maintained at that water depth for the duration of the test. Treated plants and controls were maintained in a greenhouse for 13 to 15 days, after which time all species were compared to controls and visually evaluated. Plant response ratings, summarized in Table B, are based on a scale of 0 to 100 where 0 is no effect and 100 is complete control. A dash (-) response means no test result.

[11] = system: wheat (Triticum aestivum); assay: Test A postemergence, wheat; details: 0 to 100 scale (0 no effect, 100 complete control)
Text: as §1

[12] = system: morningglory (Ipomoea spp.); assay: Test A preemergence, morningglory; details: 0 to 100 scale (0 no effect, 100 complete control)
Text: as §1

corn (Zea mays) [13] = assay: Test A preemergence, corn; details: 0 to 100 scale (0 no effect, 100 complete control)
Text: as §1

[14] = system: barnyardgrass (Echinochloa crus-galli); assay: Test A postemergence, barnyardgrass; details: 0 to 100 scale (0 no effect, 100 complete control)
Text: as §1

[15] = system: large crabgrass (Digitaria sanguinalis); assay: Test A postemergence, large crabgrass; details: 0 to 100 scale (0 no effect, 100 complete control)
Text: as §1

[16] = system: umbrella sedge (Cyperus difformis); assay: Test B flooded paddy test, umbrella sedge; details: Flood, scale 0 to 100
Text: as §2

rice (Oryza sativa) = assay: Test B flooded paddy test, rice; details: Flood, scale 0 to 100
Text: as §2

[17] = system: velvetleaf (Abutilon theophrasti); assay: Test A preemergence, velvetleaf; details: 0 to 100 scale (0 no effect, 100 complete control)
Text: as §1

[18] = system: barnyardgrass (Echinochloa crus-galli); assay: Test A preemergence, barnyardgrass; details: 0 to 100 scale (0 no effect, 100 complete control)
Text: as §1

[19] = system: ducksalad (Heteranthera limosa); assay: Test B flooded paddy test, ducksalad; details: Flood, scale 0 to 100
Text: as §2

[20] = 250 g ai/ha, scale 0 to 100 (0 no effect, 100 complete control)

Cc1con2c(=O)c(CS(=O)(=O)C3=NOC(C)(C)C3)c(C(F)(F)F)nc12 [Compound 56]
10: Plant response rating, Morningglory ([4]; 125 g ai/ha) | Plant response rating, Pigweed ([5]; 500 g ai/ha)
0: Plant response rating, Corn (corn (Zea mays) [2]; 125 g ai/ha) | Plant response rating, Corn (corn (Zea mays) [2]; 500 g ai/ha) | Plant response rating, Crabgrass, Large ([3]; 125 g ai/ha) | Plant response rating, Pigweed ([5]; 125 g ai/ha) | Plant response rating, Wheat ([7]; 125 g ai/ha) | Plant response rating, Wheat ([7]; 500 g ai/ha) | Plant response rating, Pigweed ([8]; 125 g ai/ha) | Plant response rating, Pigweed ([8]; 500 g ai/ha) | Plant response rating, Velvetleaf ([9]; 125 g ai/ha) | Plant response rating, Velvetleaf ([9]; 500 g ai/ha) | Plant response rating, Barnyardgrass ([10]; 31 g ai/ha, scale 0 to 100) | Plant response rating, Barnyardgrass ([10]; 62 g ai/ha, scale 0 to 100) | Plant response rating, Barnyardgrass ([10]; 125 g ai/ha, scale 0 to 100) | Plant response rating, Barnyardgrass [10, 20] | Plant response rating, Wheat ([11]; 125 g ai/ha) | Plant response rating, Wheat ([11]; 500 g ai/ha) | Plant response rating, Morningglory ([12]; 125 g ai/ha) | Plant response rating, Morningglory ([12]; 500 g ai/ha) | Plant response rating, Corn (corn (Zea mays) [13]; 125 g ai/ha) | Plant response rating, Corn (corn (Zea mays) [13]; 500 g ai/ha) | Plant response rating, Sedge, Umbrella ([16]; 31 g ai/ha) | Plant response rating, Sedge, Umbrella ([16]; 62 g ai/ha) | Plant response rating, Rice (rice (Oryza sativa); 31 g ai/ha) | Plant response rating, Rice (rice (Oryza sativa); 62 g ai/ha) | Plant response rating, Rice (rice (Oryza sativa); 125 g ai/ha) | Plant response rating, Rice (rice (Oryza sativa); 250 g ai/ha) | Plant response rating, Velvetleaf ([17]; 125 g ai/ha) | Plant response rating, Velvetleaf ([17]; 500 g ai/ha) | Plant response rating, Barnyardgrass ([18]; 125 g ai/ha) | Plant response rating, Ducksalad ([19]; 31 g ai/ha) | Plant response rating, Ducksalad ([19]; 62 g ai/ha) | Plant response rating, Ducksalad ([19]; 125 g ai/ha) | Plant response rating, Ducksalad ([19]; 250 g ai/ha)
90: Plant response rating, Crabgrass, Large ([3]; 500 g ai/ha) | Plant response rating, Foxtail, Giant ([6]; 500 g ai/ha) | Plant response rating, Barnyardgrass ([18]; 500 g ai/ha)
70: Plant response rating, Barnyardgrass ([14]; 125 g ai/ha)
20: Plant response rating, Foxtail, Giant ([6]; 125 g ai/ha) | Plant response rating, Sedge, Umbrella ([16]; 125 g ai/ha)
80: Plant response rating, Foxtail, Giant ([1]; 500 g ai/ha) | Plant response rating, Barnyardgrass ([14]; 500 g ai/ha) | Plant response rating, Crabgrass, Large ([15]; 500 g ai/ha)
60: Plant response rating, Crabgrass, Large ([15]; 125 g ai/ha)
40: Plant response rating, Foxtail, Giant ([1]; 125 g ai/ha)
30: Plant response rating, Morningglory ([4]; 500 g ai/ha) | Plant response rating, Sedge, Umbrella ([16]; 250 g ai/ha)

CC1(C)CC(S(=O)(=O)Cc2c(C(F)(F)F)nc3ccccn3c2=O)=NO1 [Compound 7]
40: Plant response rating, Crabgrass, Large ([15]; 125 g ai/ha)
90: Plant response rating, Foxtail, Giant ([6]; 500 g ai/ha) | Plant response rating, Barnyardgrass ([18]; 500 g ai/ha)
0: Plant response rating, Corn (corn (Zea mays) [2]; 125 g ai/ha) | Plant response rating, Corn (corn (Zea mays) [2]; 500 g ai/ha) | Plant response rating, Morningglory ([4]; 125 g ai/ha) | Plant response rating, Morningglory ([4]; 500 g ai/ha) | Plant response rating, Pigweed ([5]; 125 g ai/ha) | Plant response rating, Pigweed ([5]; 500 g ai/ha) | Plant response rating, Wheat ([7]; 125 g ai/ha) | Plant response rating, Pigweed ([8]; 125 g ai/ha) | Plant response rating, Pigweed ([8]; 500 g ai/ha) | Plant response rating, Velvetleaf ([9]; 125 g ai/ha) | Plant response rating, Barnyardgrass ([10]; 62 g ai/ha, scale 0 to 100) | Plant response rating, Barnyardgrass [10, 20] | Plant response rating, Wheat ([11]; 125 g ai/ha) | Plant response rating, Wheat ([11]; 500 g ai/ha) | Plant response rating, Morningglory ([12]; 125 g ai/ha) | Plant response rating, Morningglory ([12]; 500 g ai/ha) | Plant response rating, Corn (corn (Zea mays) [13]; 125 g ai/ha) | Plant response rating, Corn (corn (Zea mays) [13]; 500 g ai/ha) | Plant response rating, Sedge, Umbrella ([16]; 62 g ai/ha) | Plant response rating, Sedge, Umbrella ([16]; 250 g ai/ha) | Plant response rating, Rice (rice (Oryza sativa); 62 g ai/ha) | Plant response rating, Rice (rice (Oryza sativa); 250 g ai/ha) | Plant response rating, Velvetleaf ([17]; 125 g ai/ha) | Plant response rating, Velvetleaf ([17]; 500 g ai/ha) | Plant response rating, Ducksalad ([19]; 62 g ai/ha) | Plant response rating, Ducksalad ([19]; 250 g ai/ha)
60: Plant response rating, Foxtail, Giant ([1]; 125 g ai/ha) | Plant response rating, Crabgrass, Large ([3]; 125 g ai/ha) | Plant response rating, Barnyardgrass ([18]; 125 g ai/ha)
20: Plant response rating, Velvetleaf ([9]; 500 g ai/ha)
80: Plant response rating, Foxtail, Giant ([1]; 500 g ai/ha) | Plant response rating, Crabgrass, Large ([3]; 500 g ai/ha) | Plant response rating, Foxtail, Giant ([6]; 125 g ai/ha) | Plant response rating, Barnyardgrass ([14]; 125 g ai/ha) | Plant response rating, Barnyardgrass ([14]; 500 g ai/ha) | Plant response rating, Crabgrass, Large ([15]; 500 g ai/ha)
10: Plant response rating, Wheat ([7]; 500 g ai/ha)

From US20100099561A1, “HETEROBICYCLIC ALKYLTHIO-BRIDGED ISOXAZOLINES” (E.I. DU PONT DE NEMOURS AND COMPANY, priority 2008, published 2010)
